According to PubChem BioAssay AID179 (DTP/NCI, 2004):
Active and inactive are the calls of the source.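 The calls were made as follows: active = compounds giving half or more protection of infected cells from virus-caused growth loss, again on retest; inactive = the rest.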 *1 amine or outer side, *2 acyl side, *3 side chain or, on linkers, in order; H or OH if unused. Where a SMILES comes first, the peptide text is derived from it. [ ]: non-standard residue; d: D form. X7 = NC(N)=NCC(O)CC(N[*:1])C(=O)[*:2]; Orn = NCCC[CH](N)C(=O)O

Test system: CEM cells HIV-1 protection, formazan growth assay
Experiment: NCI AIDS Antiviral Assay
Conditions: for IC50: measured here: growth of uninfected CEM cells
Method in brief: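 Human CEM cells, uninfected and HIV-1-infected, exposed to five drug concentrations; growth measured by soluble formazan assay and scored as percent protection from infection, with protecting compounds retested.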

| SMILES | EC50 [µM] | IC50 [µM] | outcome |
| --- | --- | --- | --- |
| CC(C)(C)OC(=O)N[C@H]1CC(=O)c2ccccc2N(CC(=O)O)C1=O | > 251 | > 251 |  |
| OC1CCCC1C(O)(C(F)(F)F)C(F)(F)F (stereo unspecified) |  |  | inactive |
| COC(=O)C(/C(=N/N)C(=O)Nc1ccc(C)c(C)c1)c1nc2ccc(Cl)cc2[nH]c1=O (stereo unspecified) | > 214 | 135 |  |
| O=S(=O)(F)c1ccc(C[P+](c2ccccc2)(c2ccccc2)c2ccccc2)cc1Cl | > 200 | 97.7 |  |
| Cc1[nH]c(C)c2ccc(=O)ccc12 | > 240 | 145 |  |
| CCCC1N2CCCCC2[C@@H]2c3[nH]c4ccccc4c3CCN12 (stereo partly specified) | > 427 | > 427 |  |
| Nc1c(N2CCOCC2)c(=O)nc2[nH]/c(=C\c3ccccc3O)c(=O)n12 | > 200 | 97.7 |  |
| CC1(C)CC(=O)C2=C(C1)Nc1ccccc1S2 |  |  | inactive |
| CC(O)C(NC(=O)C(CCCN)NC(=O)C(CC(O)CN=C(N)N)NC(=O)C(N)CCCN=C(N)N)C(=O)NC(CCCN)C(=O)NC(CC(O)CN=C(N)N)C(=O)NC(Cc1ccc(O)cc1)C(=O)O (stereo unspecified) (H-R[X7][Orn]T[Orn][X7]Y-OH; configuration not given here) | > 245 | 174 |  |
| CCOC(=O)c1cccc([N+](=O)[O-])c1N | > 200 | > 200 |  |
| O=c1[nH]nc(-c2ccc([N+](=O)[O-])cc2)n1/N=C/c1ccc([N+](=O)[O-])cc1 | > 200 | 132 |  |
| C=C1C(=O)C23OC2C1CCC(=O)C1(C)CC[C@H](OC(C)=O)C(C)(C)[C@H]1CC3=O (stereo partly specified) | > 174 | 2.29 |  |
| C=CCN(N=O)C(=O)N(CCCCC(NC(C)=O)C(=O)NCc1ccccc1)Cc1ccccc1 (stereo unspecified) | > 28.2 | > 28.2 |  |
| COc1cccc([C@@]2(O)c3c(ccc(O)c3OC)[C@H]2OC)c1OC | > 15.8 | > 15.8 |  |
| O=C1CCCc2[nH]c(=O)ccc21 |  |  | inactive |
| O=C1/C(=C\c2ccccc2)Oc2ccc(Cl)cc21 | > 14.5 | > 14.5 |  |
| Cc1nn(C(=O)c2ccc(Cl)cc2)c2c1C(c1ccccc1O)SC(N)=N2 (stereo unspecified) | > 200 | 107 |  |
| Cc1ccc(/C=N/Nc2ccccn2)s1 | > 200 | > 200 |  |
| O=c1[nH]c2cc(Cl)ccc2nc1/C(=N\Nc1ccccc1)C(O)c1ccc2c(c1)OCO2 (stereo unspecified) | > 209 | > 209 |  |
| CN(C)c1nc(N(C)C)sc(=O)n1 |  |  | inactive |
| O=C(CC1(O)C(=O)Nc2ccc([N+](=O)[O-])cc21)c1ccc(Br)cc1 (stereo unspecified) | > 41.7 | > 41.7 |  |

| SMILES | EC50 [µM] | IC50 [µM] | outcome |
| --- | --- | --- | --- |
| O=C(O)CSc1ccc2c3c(cccc13)C(=O)c1ccccc1-2 | > 200 | 3.09 |  |
| CCOC(=O)Nc1ccc(C(=O)/C=C\c2ccc(N(CC)CC)cc2)cc1 | > 200 | 3.72 |  |
| CC(NC(=O)C(=O)N/N=C1\CC(c2ccccc2)Oc2ccccc21)c1ccccc1 (stereo unspecified) |  |  | inactive |
| CCOC(=O)C(=CNc1ccc(N(C2=NCC(C)S2)c2ccc(F)c(Cl)c2)cc1)C(=O)OCC (stereo unspecified) |  |  | inactive |
| CCOC1(OCC)CC2C(=O)CCCC21OC(C)=O (stereo unspecified) | > 229 | 132 |  |
| Cc1nc2[nH]c(=O)n(OS(=O)(=O)c3ccccc3)c(=O)c2s1 | > 200 | 35.5 |  |
| CCCCN(CCCC)CN1C(=O)/C(=C/c2ccc(NC(C)=O)cc2)NC1=S | > 200 | > 200 |  |
| CCn1c(=O)c2c3ccc(O)cc3[nH]c2c2ccc(O)cc21 | > 200 | 38.9 |  |
| O=C(O)c1cc(=O)c2[nH]c3ccccc3c2s1 |  |  | inactive |
| COc1ccc(/C=C/C(CC(NO)c2ccc(OC)cc2)=N\O)cc1 (stereo unspecified) | > 200 | > 100 |  |
| CCOC(=O)/C(=C/c1ccc(C(=O)OC)cc1)N(CC)CC | > 427 | 67.6 |  |
| Cc1nc(Nc2ccccc2Cl)sc1C(=O)CC(=O)C(N)=O | > 200 | > 200 |  |
| C=C(C)[C@@H]1CC[C@]2(C(=O)O)CC[C@]3(C)[C@H](CC[C@@H]4[C@@]5(C)CC[C@H](C(=O)/C=C/c6ccc(O)cc6)C(C)(C)[C@@H]5CC[C@]43C)[C@@H]12 | > 200 | 2.34 |  |
| N[C@@H]1c2c(csc2Br)C(=O)[C@@H]1O | > 200 | 11 |  |
| CC(C)CCSSCCC(C)C | > 200 | > 200 |  |
| C=CN1C(=O)OC[C@@H]1c1ccccc1 | > 513 | > 513 |  |
| CN1c2ccccc2C(=O)NC12CCNCC2 | > 200 | > 200 |  |
| Cc1cn(C(Cc2ccccc2)OCCO)c(=O)[nH]c1=O (stereo unspecified) | > 200 | > 200 |  |
| NC(=O)CNCCS(=O)(=O)O | > 200 | > 200 |  |
| COc1nc2ncc([C@@H](O)[C@H](O)CO)nc2c(=O)n1C | > 200 | > 200 |  |
| C/C(=N\NC(N)=O)C(CN1CCOCC1)C(c1ccccc1)c1c(O)c2ccccc2oc1=O (stereo unspecified) | > 81.3 | 67.6 |  |

| SMILES | EC50 [µM] | IC50 [µM] | outcome |
| --- | --- | --- | --- |
| CN1CCC2(CC1)C(=O)N(NC(N)=O)C(=O)C2c1ccccc1 (stereo unspecified) | > 200 | > 200 |  |
| O=[N+]([O-])c1ccc(-c2nn3c(C45CC6CC(CC(C6)C4)C5)nnc3s2)c(Cl)c1 | > 200 | > 200 |  |
| Cc1ccc(-c2nc3ccccc3c(=O)n2NCC2(O)OCC(O)C(O)C2O)cc1 (stereo unspecified) |  |  | inactive |
| CCCCCCCC/C=C\CCCCCCCCOP(=O)(O)OCCC=C(c1cc(Cl)c(O)c(C(=O)O)c1)c1cc(Cl)c(O)c(C(=O)O)c1 | > 77.6 | 69.2 |  |
| CN1C(=O)C(O)CC1c1cccc(F)c1 (stereo unspecified) | > 200 | > 200 |  |
| CC(=O)C1CC2(C(=O)C1=O)c1ccccc1-c1ccccc12 (stereo unspecified) |  |  | inactive |
| CC(=O)Oc1ccccc1/C=C/C(=O)/C=C/c1ccccc1OC(C)=O | > 20 | 2.14 |  |
| CC1CCC(O)C(C(O)CC2CC(=O)NC(=O)C2)C1 (stereo unspecified) | > 200 | > 200 |  |
| Nc1cc(N)[nH]c(=S)n1 |  |  | inactive |
| C[Si]12OCCCN(CCO1)CCO2 |  |  | inactive |
| O=C1CCCC2C3CC(CN12)C1CC(O)CCN1C3 (stereo unspecified) | > 200 | > 200 |  |
| CC(=O)CC(=O)Nc1c(C)[c]([Hg][O]C(C)=O)c(C)[c]([Hg][O]C(C)=O)[c]1[Hg][O]C(C)=O | > 1.48 | > 1.48 |  |
| CCOC(=O)c1nc2ccc(C(F)(F)F)cc2nc1Oc1ccc(C(=O)OC)cc1 | > 200 | > 200 |  |
| CC(OCc1ccccc1)C(NC(=O)C1CSSCC(NC(=O)C(Cc2ccccc2)NC(=O)OCc2ccccc2)C(=O)NC(Cc2ccccc2)C(=O)NC(Cc2cn(C=O)c3ccccc23)C(=O)NC(CCCCNC(=O)OCc2ccccc2)C(=O)NC(C(C)OCc2ccccc2)C(=O)N1)C(N)=O (stereo unspecified) | > 100 | 4.47 |  |
| COc1ccc(SS(=O)(=O)c2ccc(OC)cc2)cc1 | > 56.2 | 5.25 |  |
| Clc1cc(Cl)c2c(Cl)cc(Cl)c3c2c1N=S=N3 |  |  | inactive |
| C=CCCCC1(C)CCNC1=S (stereo unspecified) | > 513 | > 513 |  |
| CCOC(=O)N1CC(C)=C(C)CN1C(=O)Nc1ccc(Cl)c(Cl)c1 | > 200 | 81.3 |  |
| Cc1cn(C2CC(ONC(N)=O)C(CO[Si](C)(C)C(C)(C)C)O2)c(=O)[nH]c1=O (stereo unspecified) | > 200 | 105 |  |
| O=[N+]([O-])c1ccc(N=Nc2c(NNc3ccc([N+](=O)[O-])cn3)cc(S(=O)(=O)O)c3ccccc23)nc1 |  |  | inactive |
